Experimental data reported in patent publication US9422293B2 (priority 2006, dated 2016).
Structures can show the parent of a compound that is named as a salt.

target: rat TRPV1 (Rattus norvegicus (Rat), UniProt O35433); conditions: read-out: Rat IC50
Sequence (O35433 whole entry): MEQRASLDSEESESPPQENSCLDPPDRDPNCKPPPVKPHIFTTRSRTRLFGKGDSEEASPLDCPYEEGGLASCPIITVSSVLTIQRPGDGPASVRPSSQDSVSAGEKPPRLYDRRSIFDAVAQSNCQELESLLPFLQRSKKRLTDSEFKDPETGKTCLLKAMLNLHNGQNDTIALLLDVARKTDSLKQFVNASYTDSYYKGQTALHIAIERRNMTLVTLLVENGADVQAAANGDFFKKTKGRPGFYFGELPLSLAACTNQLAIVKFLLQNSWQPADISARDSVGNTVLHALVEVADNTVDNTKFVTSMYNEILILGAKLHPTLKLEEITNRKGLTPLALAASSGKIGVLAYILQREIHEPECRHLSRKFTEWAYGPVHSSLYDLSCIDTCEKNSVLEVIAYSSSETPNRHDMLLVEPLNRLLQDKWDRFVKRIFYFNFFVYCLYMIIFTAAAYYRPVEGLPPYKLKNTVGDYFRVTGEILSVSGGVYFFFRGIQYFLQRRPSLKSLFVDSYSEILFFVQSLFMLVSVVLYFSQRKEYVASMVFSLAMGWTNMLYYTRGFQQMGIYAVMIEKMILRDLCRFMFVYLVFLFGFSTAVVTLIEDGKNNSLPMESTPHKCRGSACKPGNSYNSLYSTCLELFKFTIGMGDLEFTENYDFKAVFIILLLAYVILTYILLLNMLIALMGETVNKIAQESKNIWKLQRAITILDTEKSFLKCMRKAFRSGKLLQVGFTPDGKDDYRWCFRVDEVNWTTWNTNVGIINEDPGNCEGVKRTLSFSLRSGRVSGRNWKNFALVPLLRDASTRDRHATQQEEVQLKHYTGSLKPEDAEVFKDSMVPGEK

Question: For `CC(C)(C)c1ccc(Nc2ncnc3c2CCN(c2ncccc2C(F)(F)F)CC3)cc1` [Example 1, (4-tert-Butyl-phenyl)-[7-(3-trifluoromethyl-pyridin-2-yl)-6,7,8,9-tetrahydro-5H-pyrimido[4,5-d]azepin-4-yl]-amine], which IC50 is on record?
Answer: The IC50 was 0.09 µM.

Question: For `FC(F)(F)c1ccc(Nc2ncnc3c2CCN(c2ncccc2C(F)(F)F)CC3)cc1` [Example 2, (4-Trifluoromethyl-phenyl)-[7-(3-trifluoromethyl-pyridin-2-yl)-6,7,8,9-tetra-hydro-5H-pyrimido[4,5-d]azepin-4-yl]-amine], which IC50 is on record?
Answer: The IC50 was 0.79 µM.

Question: With `CC(C)(C)c1ccc(Nc2nc(C3CC3)nc3c2CCN(c2ncccc2C(F)(F)F)CC3)cc1` [Example 3, (4-tert-Butyl-phenyl)-[2-cyclopropyl-7-(3-trifluoromethyl-pyridin-2-yl)-6,7,8,9-tetrahydro-5H-pyrimido[4,5-d]azepin-4-yl]-amine] as the molecule, how does the IC50 read?
Answer: Its IC50 is 0.095 µM.

Question: With `FC(F)(F)c1cccnc1N1CCc2nc(C3CC3)nc(Nc3ccc(Cl)cc3)c2CC1` [Example 4, (4-Chloro-phenyl)-[2-cyclopropyl-7-(3-trifluoromethyl-pyridin-2-yl)-6,7,8,9-tetrahydro-5H-pyrimido[4,5-d]azepin-4-yl]-amine] as the molecule, how does the IC50 read?
Answer: The IC50 was 0.5 µM.

Question: How did the IC50 turn out when `FC(F)(F)c1ccc(Nc2nc(C3CC3)nc3c2CCN(c2ncccc2C(F)(F)F)CC3)cc1` [Example 5, [2-Cyclopropyl-7-(3-trifluoromethyl-pyridin-2-yl)-6,7,8,9-tetrahydro-5H-pyrimido[4,5-d]azepin-4-yl]-(4-trifluoromethyl-phenyl)-amine] was run?
Answer: Its IC50 is 0.15 µM.

Question: For `CC(C)(C)c1ccc(Nc2nc(-c3ccccc3)nc3c2CCN(c2ncccc2C(F)(F)F)CC3)cc1` [Example 6, (4-tert-Butyl-phenyl)-[2-phenyl-7-(3-trifluoromethyl-pyridin-2-yl)-6,7,8,9-tetrahydro-5H-pyrimido[4,5-d]azepin-4-yl]-amine], which IC50 is on record?
Answer: Its IC50 is 0.49 µM.

Question: With `FC(F)(F)c1ccc(Nc2nc(-c3ccccc3)nc3c2CCN(c2ncccc2C(F)(F)F)CC3)cc1` [Example 7, [2-Phenyl-7-(3-trifluoromethyl-pyridin-2-yl)-6,7,8,9-tetrahydro-5H-pyrimido[4,5-d]azepin-4-yl]-(4-trifluoromethyl-phenyl)-amine] as the molecule, how does the IC50 read?
Answer: Its IC50 is 0.14 µM.

Question: Which IC50 does the source give for `CC(C)c1nc2c(c(Nc3ccc(C(C)(C)C)cc3)n1)CCN(c1ncccc1C(F)(F)F)CC2` [Example 8, (4-tert-Butyl-phenyl)-[2-isopropyl-7-(3-trifluoromethyl-pyridin-2-yl)-6,7,8,9-tetrahydro-5H-pyrimido[4,5-d]azepin-4-yl]-amine] here?
Answer: The IC50 was 0.025 µM.

Question: For `CC(C)c1nc2c(c(Nc3cccc(C(F)(F)F)c3)n1)CCN(c1ncccc1C(F)(F)F)CC2` [Example 10, [2-Isopropyl-7-(3-trifluoromethyl-pyridin-2-yl)-6,7,8,9-tetrahydro-5H-pyrimido[4,5-d]azepin-4-yl]-(3-trifluoromethyl-phenyl)-amine], which IC50 is on record?
Answer: Its IC50 is 0.93 µM.

Question: `CC(C)c1nc2c(c(NCCc3ccc(F)cc3)n1)CCN(c1ncccc1C(F)(F)F)CC2` [Example 12, [2-(4-Fluoro-phenyl)-ethyl]-[2-isopropyl-7-(3-trifluoromethyl-pyridin-2-yl)-6,7,8,9-tetrahydro-5H-pyrimido[4,5-d]azepin-4-yl]-amine] was tested. Which IC50 did it give?
Answer: Its IC50 is 0.95 µM.

Question: With `Cc1nc2c(c(Nc3ccc(C(C)(C)C)cc3)n1)CCN(c1ncccc1C(F)(F)F)CC2` [Example 15, (4-tert-Butyl-phenyl)-[2-methyl-7-(3-trifluoromethyl-pyridin-2-yl)-6,7,8,9-tetrahydro-5H-pyrimido[4,5-d]azepin-4-yl]-amine] as the molecule, how does the IC50 read?
Answer: Its IC50 is 0.046 µM.

Question: `Cc1nc2c(c(Nc3ccc(C(F)(F)F)cc3)n1)CCN(c1ncccc1C(F)(F)F)CC2` [Example 16, [2-Methyl-7-(3-trifluoromethyl-pyridin-2-yl)-6,7,8,9-tetrahydro-5H-pyrimido-[4,5-d]azepin-4-yl]-(4-trifluoromethyl-phenyl)-amine] was tested. Which IC50 did it give?
Answer: Its IC50 is 0.1 µM.

Question: With `FC(F)(F)c1ccc(Nc2nc(C3CC3)nc3c2CCN(c2ncccc2C(F)(F)F)CC3)nc1` [Example 19, [2-Cyclopropyl-7-(3-trifluoromethyl-pyridin-2-yl)-6,7,8,9-tetrahydro-5H-pyrimido[4,5-d]azepin-4-yl]-(5-trifluoromethyl-pyridin-2-yl)-amine] as the molecule, how does the IC50 read?
Answer: The IC50 was 0.51 µM.

Question: Which IC50 does the source give for `CC(C)c1nc2c(c(Nc3ccc(C(F)(F)F)cn3)n1)CCN(c1ncccc1C(F)(F)F)CC2` [Example 20, [2-Isopropyl-7-(3-trifluoromethyl-pyridin-2-yl)-6,7,8,9-tetrahydro-5H-pyrimido[4,5-d]azepin-4-yl]-(5-trifluoromethyl-pyridin-2-yl)-amine] here?
Answer: Its IC50 is 0.032 µM.

Question: With `CC(C)c1nc2c(c(Nc3cnc4ccccc4c3)n1)CCN(c1ncccc1C(F)(F)F)CC2` [Example 21, [2-Isopropyl-7-(3-trifluoromethyl-pyridin-2-yl)-6,7,8,9-tetrahydro-5H-pyrimido[4,5-d]azepin-4-yl]-quinolin-3-yl-amine] as the molecule, how does the IC50 read?
Answer: The IC50 was 1.1 µM.

Question: For `FC(F)(F)c1ccc(Nc2nc(-c3ccccc3)nc3c2CCN(c2ncccc2C(F)(F)F)CC3)nc1` [Example 22, [2-Phenyl-7-(3-trifluoromethyl-pyridin-2-yl)-6,7,8,9-tetrahydro-5H-pyrimido[4,5-d]azepin-4-yl]-(5-trifluoromethyl-pyridin-2-yl)-amine], which IC50 is on record?
Answer: The IC50 was 0.13 µM.

Question: With `CC(C)c1nc2c(c(Nc3ccc(C(F)(F)F)nc3)n1)CCN(c1ncccc1C(F)(F)F)CC2` [Example 23, [2-Isopropyl-7-(3-trifluoromethyl-pyridin-2-yl)-6,7,8,9-tetrahydro-5H-pyrimido[4,5-d]azepin-4-yl]-(6-trifluoromethyl-pyridin-3-yl)-amine] as the molecule, how does the IC50 read?
Answer: The IC50 was 0.31 µM.

Question: `CC(C)c1nc2c(c(Nc3ccc(Oc4ccccc4)cc3)n1)CCN(c1ncccc1C(F)(F)F)CC2` [Example 25, [2-Isopropyl-7-(3-trifluoromethyl-pyridin-2-yl)-6,7,8,9-tetrahydro-5H-pyrimido[4,5-d]azepin-4-yl]-(4-phenoxy-phenyl)-amine] was tested. Which IC50 did it give?
Answer: Its IC50 is 0.77 µM.

Question: How did the IC50 turn out when `FC(F)(F)c1ccc(Nc2ncnc3c2CCN(c2cnc4ccccc4n2)CC3)cc1` [Example 29, (7-Quinoxalin-2-yl-6,7,8,9-tetrahydro-5H-pyrimido[4,5-d]azepin-4-yl)-(4-trifluoromethyl-phenyl)-amine] was run?
Answer: Its IC50 is 0.34 µM.

Question: With `FC(F)(F)c1ccc(Nc2ncnc3c2CCN(c2ncccc2Cl)CC3)cc1` [Example 30, [7-(3-Chloro-pyridin-2-yl)-6,7,8,9-tetrahydro-5H-pyrimido[4,5-d]azepin-4-yl]-(4-trifluoromethyl-phenyl)-amine] as the molecule, how does the IC50 read?
Answer: Its IC50 is 1.3 µM.

Question: How did the IC50 turn out when `Cc1nc2ccccc2nc1N1CCc2ncnc(Nc3ccc(C(C)(C)C)cc3)c2CC1` [Example 32, (4-tert-Butyl-phenyl)-[7-(3-methyl-quinoxalin-2-yl)-6,7,8,9-tetrahydro-5H-pyrimido[4,5-d]azepin-4-yl]-amine] was run?
Answer: The IC50 was 0.013 µM.

Question: With `Cc1nc2ccccc2nc1N1CCc2nc(C(C)C)nc(Nc3ccc(C(C)(C)C)cc3)c2CC1` [Example 33, (4-tert-Butyl-phenyl)-[2-isopropyl-7-(3-methyl-quinoxalin-2-yl)-6,7,8,9-tetrahydro-5H-pyrimido[4,5-d]azepin-4-yl]-amine] as the molecule, how does the IC50 read?
Answer: Its IC50 is 0.11 µM.

Question: Which IC50 does the source give for `Cc1nc2ccccc2nc1N1CCc2nc(C(C)C)nc(Nc3ccc(C(F)(F)F)cc3)c2CC1` [Example 34, [2-Isopropyl-7-(3-methyl-quinoxalin-2-yl)-6,7,8,9-tetrahydro-5H-pyrimido-[4,5-d]azepin-4-yl]-(4-trifluoromethyl-phenyl)-amine] here?
Answer: The IC50 was 0.36 µM.

Question: How did the IC50 turn out when `CC(C)c1nc2c(c(Nc3ccc(C(F)(F)F)cc3)n1)CCN(c1nc3ccccc3nc1C(F)(F)F)CC2` [Example 35, [2-Isopropyl-7-(3-trifluoromethyl-quinoxalin-2-yl)-6,7,8,9-tetrahydro-5H-pyrimido[4,5-d]azepin-4-yl]-(4-trifluoromethyl-phenyl)-amine] was run?
Answer: Its IC50 is 2.4 µM.

Question: For `CC(C)c1nc2c(c(Nc3ccc(C(F)(F)F)cc3)n1)CCN(c1ncccc1S(C)(=O)=O)CC2` [Example 36, [2-Isopropyl-7-(3-methanesulfonyl-pyridin-2-yl)-6,7,8,9-tetrahydro-5H-pyrimido[4,5-d]azepin-4-yl]-(4-trifluoromethyl-phenyl)-amine], which IC50 is on record?
Answer: Its IC50 is 0.37 µM.

Question: How did the IC50 turn out when `CC(C)(C)c1ccc(Nc2ncnc3c2CCN(c2nncc4ccccc24)CC3)cc1` [Example 37, (4-tert-Butyl-phenyl)-(7-phthalazin-1-yl-6,7,8,9-tetrahydro-5H-pyrimido-[4,5-d]azepin-4-yl)-amine] was run?
Answer: Its IC50 is 0.15 µM.

Question: For `Cc1cncnc1N1CCc2ncnc(Nc3ccc(C(C)(C)C)cc3)c2CC1` [Example 38, (4-tert-Butyl-phenyl)-[7-(5-methyl-pyrimidin-4-yl)-6,7,8,9-tetrahydro-5H-pyrimido[4,5-d]azepin-4-yl]-amine], which IC50 is on record?
Answer: Its IC50 is 1.4 µM.

same assay, conditions: read-out: Rat IC50; hydrochloride salt

Question: How did the IC50 turn out when `CC(C)(C)c1ccc(Nc2ncnc3c2CCN(c2ncccc2C(F)(F)F)CC3)cc1` [Example 1A, (4-tert-Butyl-phenyl)-[7-(3-trifluoromethyl-pyridin-2-yl)-6,7,8,9-tetrahydro-5H-pyrimido[4,5-d]azepin-4-yl]-amine hydrochloride salt] was run?
Answer: Its IC50 is 0.049 µM.

Question: With `FC(F)(F)c1ccc(Nc2ncnc3c2CCN(c2ncccc2C(F)(F)F)CC3)cc1` [Example 2A, (4-Trifluoromethyl-phenyl)-[7-(3-trifluoromethyl-pyridin-2-yl)-6,7,8,9-tetra-hydro-5H-pyrimido[4,5-d]azepin-4-yl]-amine hydrochloride salt] as the molecule, how does the IC50 read?
Answer: Its IC50 is 0.42 µM.

Question: With `FC(F)(F)c1ccc(Nc2nc(C3CC3)nc3c2CCN(c2ncccc2C(F)(F)F)CC3)cc1` [Example 5A, [2-Cyclopropyl-7-(3-trifluoromethyl-pyridin-2-yl)-6,7,8,9-tetrahydro-5H-pyrimido[4,5-d]azepin-4-yl]-(4-trifluoromethyl-phenyl)-amine hydrochloride salt] as the molecule, how does the IC50 read?
Answer: Its IC50 is 0.19 µM.

Question: `CC(C)c1nc2c(c(Nc3ccc(C(F)(F)F)cn3)n1)CCN(c1ncccc1C(F)(F)F)CC2` [Example 20A, [2-Isopropyl-7-(3-trifluoromethyl-pyridin-2-yl)-6,7,8,9-tetrahydro-5H-pyrimido[4,5-d]azepin-4-yl]-(5-trifluoromethyl-pyridin-2-yl)-amine hydrochloride salt] was tested. Which IC50 did it give?
Answer: The IC50 was 0.25 µM.
